From patent US10947196B2, “Beta adrenergic agonist and methods of using the same” (CURASEN THERAPEUTICS, INC., priority 2019, dated 2021)
Like-named read-outs stand apart in the source and are kept apart here.

What was measured:
β2 adrenergic receptor = β2 adrenergic receptor (Homo sapiens (Human), UniProt P07550); assay: cAMP Gs dynamic HTRF assay, β2 expressing CHO cells; assay type: cell-based; details: B2-AR
Protocol: (§1) cAMP homogeneous time-resolved fluorescence (HTRF). Compound efficacy was determined using the cAMP Gs dynamic HTRF assay (Cisbio, catalog #62AM4PEC) largely following the manufacturer's instructions, also detailed below.
(§2) Compound preparation. […] Standard serial dilution curves were 10-point, 5-fold dilutions starting from a highest concentration of 10 μM. […] Assay plates were centrifuged at 500×g for 10 seconds. Compounds and IBMX were prepared at 2× final dose to compensate for addition of cells.
(§3) Cell preparation. 1× stimulation buffer, washing PBS (Dulbecco's phosphate-buffered saline, −Mg −Ca; Caisson Labs, catalog #PBL01), assay PBS (Dulbecco's phosphate-buffered saline, +Mg, +Ca; Caisson Labs, catalog #PBL02) and Versene (0.02% EDTA disodium salt solution in PBS without calcium or magnesium; Caisson Labs, catalog #EDL01) were pre-warmed to 37° C. Cells expressing beta-adrenergic receptor were washed in washing PBS to remove growth medium and then released from the surface by incubating with Versene for 5-10 minutes at 37° C. Cells were harvested using assay PBS, counted manually by hemocytometer or by an automated cell counter, pelleted by centrifugation (200×g, 5 minutes) and resuspended in 37° C. 1× stimulation buffer to a final density of 1.5×10^6 cells/mL. 5 μL of the suspended cell solution (7500 cell total) were added to all wells of the 384 well assay plate, the assay plate was covered with an Axygen® plate seal (Corning PCR-SP) and incubated in a humidified 37° C. environment supplemented with 5% CO2 for 30 minutes.
(§4) HTRF reagent addition, reading and data analysis. After 30 minutes of cell stimulation with test compound, the assay plates were centrifuged at 500×g for 10 seconds, and incubation was stopped with the addition of 5 μL cAMP-D2 acceptor, diluted 1:21 in detection and lysis buffer 2 (Cisbio 62CL2FDF) was added to all cells. Subsequently, 5 μL Anti-cAMP-Eu Donor, diluted 1:21 in detection and lysis buffer 2, was added to cells. Plates were sealed and reactions gently ‘vortexed’ at 900 rpm on a Heidolph Titramax 1000 for at least 30 minutes at room temperature. Plates were centrifuged again at 500×g for 10 seconds, and HTRF was measured using a Tecan Spark plate reader at 50 flashes per well. […] Potency estimates (EC50) were derived from the four-parameter nonlinear regression of the concentration-effect curve and an estimate of relative efficacy was determined by comparing the magnitude of the test compound HTRF signal window (min−max dose) with the signal window of the full agonist control, isoproterenol.

β1-adrenergic receptor = β1-adrenergic receptor (Homo sapiens (Human), UniProt P08588); assay: cAMP Gs dynamic HTRF assay, β1 expressing CHO cells; assay type: cell-based; details: B1-AR
β1-adrenergic receptor, sequence (P08588 whole entry, species assumed): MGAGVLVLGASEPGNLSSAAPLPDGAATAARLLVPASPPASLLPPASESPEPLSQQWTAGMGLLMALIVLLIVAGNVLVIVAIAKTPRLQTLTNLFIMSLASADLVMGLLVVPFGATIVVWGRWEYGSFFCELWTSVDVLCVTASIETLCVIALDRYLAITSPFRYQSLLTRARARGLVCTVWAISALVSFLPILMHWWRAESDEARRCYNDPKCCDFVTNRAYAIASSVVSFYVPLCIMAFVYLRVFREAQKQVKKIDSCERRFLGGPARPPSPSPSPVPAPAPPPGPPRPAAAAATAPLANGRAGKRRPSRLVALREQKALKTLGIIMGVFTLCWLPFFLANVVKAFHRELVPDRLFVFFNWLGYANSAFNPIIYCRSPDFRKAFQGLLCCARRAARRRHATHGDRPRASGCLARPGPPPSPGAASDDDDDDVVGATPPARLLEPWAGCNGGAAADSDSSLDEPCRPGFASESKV
Protocol: as §1, §2, §3, §4

[1] = CHO-K1 (HitHunter), read-out: Average pEC50 [Receptor subtype: B2-AR, Cell type: CHO-K1 (HitHunter)] (converted)
[2] = CHO-K cells, read-out: Average EC50 [Receptor subtype: B2-AR, Cell type: CHO-K]
[3] = CHO-K cells, read-out: Average EC50 [Receptor subtype: B1-AR, Cell type: CHO-K]
[4] = CHO-K1 (HitHunter), read-out: Average pEC50 [Receptor subtype: B1-AR, Cell type: CHO-K1 (HitHunter)] (converted)

β2 adrenergic receptor, sequence (P07550 whole entry, species assumed): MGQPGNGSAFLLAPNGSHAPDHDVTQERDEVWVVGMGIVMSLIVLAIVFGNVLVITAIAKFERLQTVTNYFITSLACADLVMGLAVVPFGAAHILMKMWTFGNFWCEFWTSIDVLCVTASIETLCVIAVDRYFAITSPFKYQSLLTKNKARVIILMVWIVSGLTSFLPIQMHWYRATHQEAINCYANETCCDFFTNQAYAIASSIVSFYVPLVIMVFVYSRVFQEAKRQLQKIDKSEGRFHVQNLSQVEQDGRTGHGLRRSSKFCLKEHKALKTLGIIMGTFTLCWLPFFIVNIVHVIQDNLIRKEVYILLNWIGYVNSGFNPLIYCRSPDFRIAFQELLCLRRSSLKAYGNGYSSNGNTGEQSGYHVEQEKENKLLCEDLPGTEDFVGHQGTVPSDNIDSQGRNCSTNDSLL

Structure (SMILES)	EC50 (β2 adrenergic receptor; [1]) [µM]	EC50 (β2 adrenergic receptor; [2]) [µM]	Average pEC50 [Receptor subtype: B1-AR; Cell type: CHO-K1 (HitHunter)] (β1-adrenergic receptor; CHO-K1 (HitHunter))	EC50 (β1-adrenergic receptor; [3]) [µM]	EC50 (β1-adrenergic receptor; [4]) [µM]
CC(C)(C)NC[C@H](O)c1cccc(-c2ccccc2Cl)n1 [Compound 03-133]	< 0.01	< 0.01	C (C = <7-6)	0.1 to 1	–
CC(C)(C)NC[C@H](O)c1cccc(N2CC3CCCC3C2)n1 (stereo partly drawn) [Compound 03-135]	< 0.01	< 0.01	C (C = <7-6)	0.1 to 1	–
CC(C)(C)NC[C@H](O)c1cccc(N2CCCCC2)n1 [Compound 03-137]	< 0.01	< 0.01	–	0.1 to 1	0.1 to 1
Cc1ccc(-c2cccc([C@@H](O)CNC(C)(C)C)n2)cc1 [Compound 03-143]	0.1 to 1	–	–	> 1	> 1
CC(C)(C)NC[C@H](O)c1cccc(-c2ccc(F)cc2)n1 [Compound 03-145]	< 0.01	< 0.01	–	0.01 to 0.1	0.01 to 0.1
Cc1cccc(-c2cccc([C@@H](O)CNC(C)(C)C)n2)c1 [Compound 03-147]	< 0.01	< 0.01	–	0.01 to 0.1	0.01 to 0.1
Cc1cccc(-c2cccc([C@H](O)CNC(C)(C)C)n2)c1 [Compound 03-148]	0.1 to 1	0.1 to 1	–	0.1 to 1	0.1 to 1
Cc1ccccc1-c1cccc([C@@H](O)CNC(C)(C)C)n1 [Compound 03-149]	< 0.01	< 0.01	–	0.1 to 1	0.1 to 1
CC(C)(C)NC[C@H](O)c1cccc(-c2cccnc2)n1 [Compound 03-151]	< 0.01	< 0.01	B (B = 8-7)	0.01 to 0.1	–
CC(C)(C)NC[C@@H](O)c1cccc(-c2cccnc2)n1 [Compound 03-152]	0.01 to 0.1	0.1 to 1	D (D < 6)	> 1	–
CN(C)c1cccc([C@H](O)CNC(C)(C)C)n1 [Compound 03-154]	> 1	> 1	–	> 1	> 1
CC(C)(C)NC[C@H](O)c1cccc(-c2ccccc2F)n1 [Compound 03-155]	< 0.01	< 0.01	–	0.01 to 0.1	0.01 to 0.1
CC(C)(C)NC[C@@H](O)c1cccc(-c2ccccc2F)n1 [Compound 03-156]	0.01 to 0.1	0.01 to 0.1	–	> 1	> 1
CC(C)(C)NC[C@H](O)c1cccc(N2CCOCC2)n1 [Compound 03-157]	< 0.01	< 0.01	A (A > 8)	< 0.01	–
CC(C)(C)NC[C@@H](O)c1cccc(N2CCOCC2)n1 [Compound 03-158]	0.01 to 0.1	0.01 to 0.1	D (D < 6)	> 1	–
CCN(CC)c1cccc([C@H](O)CNC(C)(C)C)n1 [Compound 03-160]	0.1 to 1	–	–	0.1 to 1	–
CC(C)(C)NC[C@H](O)c1ccc2cccc(C(F)(F)F)c2n1 [Compound 03-163]	–	< 0.01	–	< 0.01	–
CC(C)(C)NC[C@@H](O)c1ccc2cccc(C(F)(F)F)c2n1 [Compound 03-164]	–	< 0.01	–	0.1 to 1	–
CC(C)(C)NC[C@H](O)c1ccc2ccccc2n1 [Compound 03-165]	–	< 0.01	–	< 0.01	–
CC(C)(C)NC[C@@H](O)c1ccc2ccccc2n1 [Compound 03-166]	–	0.1 to 1	–	0.1 to 1	–
CC(C)(C)NC[C@@H](O)c1cccc(C(C)(F)F)n1 [Compound 03-170]	0.1 to 1	0.1 to 1	D (D < 6)	> 1	–
CC(C)(C)NC[C@@H](O)c1nc(C(F)(F)F)cc2ccccc12 [Compound 03-172]	–	> 1	–	> 1	–
CC(C)c1cccc([C@H](O)CNC(C)(C)C)n1 [Compound 03-176]	0.1 to 1	0.1 to 1	–	> 1	> 1
COc1ccc(CC(C)(C)NC[C@@H](O)c2cccc(C(F)(F)F)n2)cc1 [Compound 03-183]	0.1 to 1	0.1 to 1	–	> 1	> 1
CC(C)(COc1ccccc1)NC[C@@H](O)c1cccc(C(F)(F)F)n1 [Compound 03-185]	> 1	> 1	D (D < 6)	> 1	–
CC(C)(C)NC[C@@H](O)c1cccc(OC(F)(F)F)n1 [Compound 03-186]	0.1 to 1	0.1 to 1	–	> 1	> 1

Structure (SMILES)	EC50 (β2 adrenergic receptor; [1]) [µM]	EC50 (β2 adrenergic receptor; [2]) [µM]	Average pEC50 [Receptor subtype: B1-AR; Cell type: CHO-K1 (HitHunter)] (β1-adrenergic receptor; CHO-K1 (HitHunter))	EC50 (β1-adrenergic receptor; [3]) [µM]	EC50 (β1-adrenergic receptor; [4]) [µM]
CC(C)(C)NC[C@H](O)c1cccc(OC(C)(C)C)n1 [Compound 03-196]	< 0.01	–	–	–	0.01 to 0.1
CC(C)(C)NC[C@H](O)c1cccc(C2CCCC2)n1 [Compound 03-198]	0.01 to 0.1	–	–	–	> 1
CC(C)(C)NC[C@H](O)c1cccc(-c2cnn[nH]2)n1 [Compound 03-200]	< 0.01	–	–	–	0.01 to 0.1
CC(C)(C)NC[C@H](O)c1cccc(C2(C#N)CC2)n1 [Compound 03-206]	< 0.01	–	–	–	< 0.01
CC(C)(C)NC[C@H](O)c1cccc(C(C)(C)C#N)n1 [Compound 03-207]	< 0.01	–	–	–	< 0.01
CC(C)(C)NC[C@@H](O)c1ccnc(C(F)(F)F)c1 [Compound 03-211]	0.1 to 1	–	–	–	0.1 to 1
CC(C)(C)NC[C@H](O)c1ccc(C#N)cn1 [Compound 03-212]	0.1 to 1	–	–	–	> 1
CC(C)(C)NC[C@H](O)c1cccc(-n2ccnc2)n1 [Compound 03-213]	0.01 to 0.1	–	–	–	> 1
CC(C)(C)NC[C@H](O)c1cccc(-n2cccn2)n1 [Compound 03-214]	< 0.01	–	–	–	0.1 to 1
Cn1ccc(-c2cccc([C@@H](O)CNC(C)(C)C)n2)n1 [Compound 03-216]	0.01 to 0.1	–	–	–	> 1
CC(C)(C)NC[C@@H](O)c1cccc(-c2ccncc2)n1 [Compound 03-220]	0.01 to 0.1	–	–	–	> 1
CC(C)(C)NC[C@H](O)c1cccc(-c2ccncc2)n1 [Compound 03-221]	< 0.01	–	–	–	0.01 to 0.1
CC(C)(C)NC[C@@H](O)c1cccc(-n2cccn2)n1 [Compound 03-225]	0.1 to 1	–	–	–	0.1 to 1
Cn1ccc(-c2cccc([C@H](O)CNC(C)(C)C)n2)n1 [Compound 03-226]	0.1 to 1	–	–	–	> 1
CC(C)(C)NC[C@@H](O)c1cccc(NC2CCC2)n1 [Compound 03-229]	> 1	–	–	–	> 1
CC(C)(C)NC[C@H](O)c1cccc(Cl)n1 [Compound 03-231]	0.01 to 0.1	–	–	–	> 1
CC(C)Nc1cccc([C@H](O)CNC(C)(C)C)n1 [Compound 03-232]	0.01 to 0.1	–	–	–	0.01 to 0.1
CC(C)(C)NC[C@@H](O)c1cccc(C2=CCCC2)n1 [Compound 03-234]	0.01 to 0.1	–	–	–	0.01 to 0.1
O[C@H](CNC1(C(F)(F)F)CC1)c1cccc(C(F)(F)F)n1 [Compound 03-235]	> 1	–	–	–	> 1
CC(=O)Nc1cccc([C@H](O)CNC(C)(C)C)n1 [Compound 03-239]	0.01 to 0.1	–	–	–	0.1 to 1
CC(C)(C)NC[C@H](O)c1cccnc1-n1ccnn1 [Compound 03-241]	> 1	–	–	–	> 1
CC(C)(C)NC[C@@H](O)c1cccc(-c2ccc[nH]2)n1 [Compound 03-244]	0.01 to 0.1	–	–	–	0.1 to 1
CC(C)(C)NC[C@H](O)c1cccc(C2=N[C@H](C(=O)O)CS2)n1 [Compound 03-246]	> 1	–	–	–	> 1
Cc1cnccc1[C@@H](O)CNC(C)(C)C [Compound 03-247, (R)-2-(tert-butylamino)-1-(3-methylpyridin-4-yl)ethan-1-ol]	> 1	–	–	–	> 1
CC(C)(C)NC[C@@H](O)c1cccc(NC2CC2)n1 [Compound 03-250]	0.1 to 1	–	–	–	> 1
